This is an account of results in patent publication US11572350B1, “Benzothia(di)azepine compounds and their use as bile acid modulators” (Albireo AB, priority 2020, dated 2023).

The target of one data set is T1, human LBAT (Homo sapiens, UniProt Q14973).
T1 construct: expressed in transfected cells; kept under Geneticin selection
T1 sequence (Q14973 1-349): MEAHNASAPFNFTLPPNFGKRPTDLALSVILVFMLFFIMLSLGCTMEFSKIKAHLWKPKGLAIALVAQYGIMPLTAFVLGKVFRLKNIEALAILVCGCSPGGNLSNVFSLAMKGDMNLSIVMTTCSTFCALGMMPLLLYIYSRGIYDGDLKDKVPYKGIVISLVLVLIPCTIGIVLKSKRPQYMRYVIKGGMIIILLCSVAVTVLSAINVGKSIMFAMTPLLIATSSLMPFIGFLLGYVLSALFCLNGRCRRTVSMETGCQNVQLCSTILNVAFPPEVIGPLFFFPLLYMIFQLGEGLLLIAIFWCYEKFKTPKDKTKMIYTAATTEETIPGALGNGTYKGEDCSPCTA
The data set can be described thus: LBAT (h/m) assay: 3H-taurocholic acid uptake in human LBAT-overexpressing cells. To be noted: 0.3 μM 3H-taurocholic acid and 7.5 μM cold taurocholic acid, 20 minutes, read-out: hLBAT IC50. It counts as cell-based. On the procedure: LBAT (h/m) Assay Protocol
20,000 cells (Human or Mouse LBAT-overexpressing cells) were seeded in 96-wells plate (Corning CLS3809) in 100 μL MEM-alpha medium (Gibco 12571-063) supplemented with 10% FBS (Gibco 10438026) containing Geneticin (Gibco 10131-027) (1 mg/mL) and incubated at 37° C. in 5% CO2 for 24 hours. After incubation, media was decanted from the wells and cells were washed two times with 300 μL of basal MEM-alpha medium (FBS-free). After decanting basal MEM-alpha medium each time, plates were tapped against paper towel to ensure maximum removal of residual media. For human LBAT, incubation mix was prepared by adding test inhibitor dilutions (3-fold serial dilution in DMSO (Sigma D2650), 10 points) in MEM-alpha (without FBS) containing 0.3 μM 3H-taurocholic acid (ARC ART-1368) and 7.5 μM cold taurocholic acid (Sigma T4009) (maintaining 0.2% final DMSO concentration). For mouse LBAT, incubation mix was prepared by adding test inhibitor dilutions (3-fold serial dilution in DMSO, 10 points) in MEM-alpha (without FBS) containing 0.3 μM 3H-taurocholic acid and 25 μM cold taurocholic acid maintaining 0.2% final DMSO concentration). 50 μL of incubation mix containing test inhibitors was then added to the wells (in duplicate) and the plates were incubated for 20 minutes in a CO2 incubator at 37° C. After incubation, the reaction was stopped by keeping the plates on ice water mix for 2-3 minutes and then the incubation mix was aspirated completely from the wells. The wells were washed two times with 250 μL of chilled unlabelled 1 mM taurocholic acid dissolved in HEPES (Gibco 15630080)-buffered (10 mM) HBSS (Gibco 14175079) (pH 7.4). The plates were tapped against a paper towel after every wash to ensure maximum removal of blocking buffer.
100 μL of MicroScint-20 (PerkinElmer 6013621) was added to the wells and kept overnight at room temperature before reading the plates in TopCount NXT™ Microplate Scintillation and Luminescence Counter from PerkinElmer under 3H Test protocol (set at 120 seconds reading time per well, with normal plate orientation).
(§1) Preparation of Test Compound Dilutions
(§2) All test compounds were provided in powder form at room temperature. 10 mM DMSO stocks of the test compounds were prepared, aliquoted and stored at −20° C. From the 10 mM DMSO stock of the compounds, a 3-fold serial dilution in DMSO was prepared to get a total of 10 dilutions of the test compounds. 0.5 μL of this dilution in DMSO was added to 250 μL of FBS-free basal media containing 3H-taurocholic acid and cold taurocholic acid to prepare the incubation mixture.

A further data set has as its system OATP KO mice. In words: Effect of LBAT selective compounds on serum bile acid levels in OATP KO mice. It counts as in vivo. To be noted: male OATP KO mice; for Effect on serum bile acid levels: oral dosing at the indicated doses, FIGS. 1 to 4, n=4. From the text:
Effect of LBAT Selective Compounds on Serum Bile Acid Levels in OATP KO Mice
Male OATP KO mice (Oatp1a/1b cluster knockout mice, Taconic, USA) aged 8 to 9 weeks were used in the studies. After completion of quarantine and acclimatization period, animals were randomized based on body weight into experimental groups (n=4 mice in each). On the experimental day, a baseline blood sample was collected followed by oral dosing of vehicle (0.5% CMC, 0.1% Tween 80) or compound of Example 3, 6, 13 or 15 at the indicated doses. Blood samples were then collected at various time points after dose (indicated in each graph). Blood was allowed to clot, and serum was collected by centrifugation at 3000 g, 4° C. for 15 minutes and stored at −80° C. for further analysis. The total bile acid concentration in each serum sample was determined by using the CELL BIOLABS Total Bile Acids kit (STA631) according to manufacturer's instructions. Mean±SEM, n=4.

The target in the next data set is T2, human IBAT (Homo sapiens, UniProt Q12908).
T2 construct: expressed in transfected cells; kept under Puromycin selection
T2 sequence (Q12908 1-348): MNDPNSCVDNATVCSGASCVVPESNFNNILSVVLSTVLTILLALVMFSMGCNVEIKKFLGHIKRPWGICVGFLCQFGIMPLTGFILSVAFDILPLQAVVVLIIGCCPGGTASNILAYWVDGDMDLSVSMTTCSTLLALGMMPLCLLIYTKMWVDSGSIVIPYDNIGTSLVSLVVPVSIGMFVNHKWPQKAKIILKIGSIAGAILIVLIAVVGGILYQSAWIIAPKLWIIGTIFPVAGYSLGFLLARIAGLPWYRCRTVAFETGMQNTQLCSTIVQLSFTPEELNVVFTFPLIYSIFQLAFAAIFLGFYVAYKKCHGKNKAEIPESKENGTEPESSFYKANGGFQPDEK
In words: IBAT (h/m) assay: 3H-taurocholic acid uptake in human IBAT-overexpressing cells. It counts as cell-based. To be noted: 0.25 μM 3H-taurocholic acid and 5 μM cold taurocholic acid, 20 minutes, highest test concentration 10 μM, read-out: hIBAT IC50. On the procedure: IBAT (h/m) Assay Protocol
10,000 cells (Human or Mouse IBAT-overexpressing cells) were seeded in 96-wells plate (Corning CLS3809) in 200 μL MEM-alpha medium (Gibco 12571-063) supplemented with 10% FBS (Gibco 10438026) containing Puromycin (Gibco A1113803) (10 μg/mL) and incubated at 37° C. in 5% CO2 for 48 hours. After incubation, media was decanted from the wells and cells were washed two times with 300 μL of basal MEM-alpha medium (FBS-free). After decanting basal MEM-alpha medium each time, plates were tapped against paper towel to ensure maximum removal of residual media. Test inhibitor dilutions (highest test concentration being 10 μM, 3-fold serial dilution, 10 points) prepared in DMSO (Sigma D2650) were added in incubation mix (maintaining 0.2% final DMSO concentration) containing 0.25 μM 3H-taurocholic acid (ARC ART-1368) and 5 μM of cold taurocholic acid (Sigma T4009). 50 μL of incubation mix containing test inhibitors was then added to the wells (in duplicate) and the plates were incubated for 20 minutes in a CO2 incubator at 37° C. After incubation, the reaction was stopped by keeping the plates on ice water mix for 2-3 minutes and then the incubation mix was aspirated completely from the wells. The wells were washed two times with 250 μL of chilled unlabelled 1 mM taurocholic acid dissolved in HEPES (Gibco 15630080)-buffered (10 mM) HBSS (Gibco 14175079) (pH 7.4). The plates were tapped against a paper towel after every wash to ensure maximum removal of blocking buffer.
100 μL of MicroScint-20 (PerkinElmer 6013621) was added to the wells and kept overnight at room temperature before reading the plates in TopCount NXT™ Microplate Scintillation and Luminescence Counter from PerkinElmer under 3H Test protocol (set at 120 seconds reading time per well).
as §1, §2

Data set [1] in a line: Bidirectional permeability assay (Caco-2 cells). It counts as in vitro ADME. The following applies: human, FaSSIF donor buffer, 120 minutes at 37° C.; for Papp A→B at 120 min, 10 µM: Caco-2, pH 7.4, absorptive direction (A2B); for Papp B→A at 120 min, 10 µM: Caco-2, pH 7.4, secretory direction (B2A). From the text: (§3) Bidirectional Permeability Assay (Caco-2 Cells)
(§4) HepaRG-Based Assay Protocol
In general terms: Caco-2 cells form a polarised layer with tight junctions and transporters.

A further data set has as its system Caco-2 cells. In words: Bidirectional permeability assay (Caco-2 cells). It counts as in vitro ADME. To be noted: absorptive direction (A2B); FaSSIF donor buffer; 120 minutes at 37° C.
Source text: as §3, §4

On to `CCCCC1CN(c2ccccc2)c2cc(SCC)c(O/C=C/C(=O)O)cc2S(=O)(=O)N1` (single isomer, unassigned) [Example 6, (E)-3-((3-butyl-7-(ethylthio)-1,1-dioxido-5-phenyl-2,3,4,5-tetrahydro-1,2,5-benzothiadiazepin-8-yl)oxy)acrylic acid], for which the concentration for half-maximal inhibition (IC50) (commonly the concentration that inhibits the measured activity by half) was 129 nM at human LBAT and over 10000 nM on human IBAT. Further, in the data set on OATP KO mice, the “Effect on serum bile acid levels” value was “increased serum bile acid levels”.

In the case of `CCCCC1CN(c2ccc(F)cc2)c2cc(SC)c(O/C=C/C(=O)O)cc2S(=O)(=O)N1` (single isomer, unassigned) [Example 3, (E)-3-((3-butyl-5-(4-fluorophenyl)-7-(methylthio)-1,1-dioxido-2,3,4,5-tetrahydro-1,2,5-benzothiadiazepin-8-yl)oxy)acrylic acid], in data set [1], the Papp A→B – broadly, how fast a substance crosses the layer from the apical side – at 120 min, 10 µM was 10.5 ×10⁻⁶ cm/s and the Papp B→A – broadly, how fast a substance crosses the layer from the basolateral side – at 120 min, 10 µM came out at 17.1 ×10⁻⁶ cm/s. The half-inhibitory concentration (IC50) on human LBAT was 1.6 nM. In addition, the “Effect on serum bile acid levels” value in the data set with OATP KO mice is “increased serum bile acid levels”. Moreover, on human IBAT, the IC50 amounted to 2020 nM.

The molecule `CCCCC1CN(c2ccccc2)c2cc(SCC)c(O/C=C(\F)C(=O)O)cc2S(=O)(=O)C1` (single isomer, unassigned) [Example 15, (Z)-3-((3-butyl-7-(ethylthio)-1,1-dioxido-5-phenyl-2,3,4,5-tetrahydro-1,5-benzothiazepin-8-yl)oxy)-2-fluoroacrylic acid] yielded an apparent permeability from basolateral to apical (Papp B→A) at 120 min, 10 µM in data set [1] of 5.3 ×10⁻⁶ cm/s. Further, the “Permeability (Caco-2) Papp A2B” value in the data set with Caco-2 cells is 1.3 ×10⁻⁶ cm/s. The figures for the IC50 at human LBAT and on human IBAT were 1.2 nM and over 3330 nM, respectively. Moreover, the “Effect on serum bile acid levels” value in the data set with OATP KO mice is “increased serum bile acid levels”.

On to `CCCCC1CN(c2ccccc2)c2cc(SCC)c(O/C=C(\F)C(=O)O)cc2S(=O)(=O)C1` (racemic) [Example 13, (Z)-3-((3-butyl-7-(ethylthio)-1,1-dioxido-5-phenyl-2,3,4,5-tetrahydro-1,5-benzothiazepin-8-yl)oxy)-2-fluoroacrylic acid], for which, in data set [1], the Papp A→B at 120 min, 10 µM came to 1.8 ×10⁻⁶ cm/s and the Papp B→A at 120 min, 10 µM turned out to be 6.9 ×10⁻⁶ cm/s. Moreover, the half-maximal inhibitory concentration (IC50) on human LBAT was 2.8 nM. Also, the “Serum bile acids level” value in the data set with OATP KO mice (30 mg/kg oral, within one hour after dosing, pre-dose/vehicle 1 to 5 μmol/L) is listed as “about 100 μmol/L”. Moreover, the “Effect on serum bile acid levels” value in the data set on OATP KO mice is on record as “increased serum bile acids in a dose-dependent manner”. Besides, the IC50 on human IBAT came to 4890 nM.
